“Also recorded” adds a separate entry of the source. Read-outs that look alike come from different tables or passages of the source.
Legend:
[1] = system: endothelial cell (EC); test: EC Proliferation Assay, [3H]thymidine incorporation (Example 36, Table 1); assay type: cell-based; conditions: Table 1 and FIG. 3
Description: Human umbilical vein derived EC(HUVEC) were harvested from normal human umbilical cords by perfusion with 0.125% trypsin/EDTA as described in Groenewegen et al., J. Exp. Med. 164, 131-143 (1986). For determination of quiescent EC phenotype isolated ECs were immediately fixed in 1% paraformaldehyde. Human microvascular ECs (MVECs) were isolated. ECs were cultured in fibronectin coated tissue culture flasks in culture medium (RPMJ-1640 with 20% human serum (HS), supplemented with 2 mM glutamine and 100 U/ml penicillin and 0.1 mg/ml streptomycin).
EC proliferation was measured using a [^3H]thymidine incorporation assay. ECs were seeded at 5000 cells/well in flatbottomed tissue culture plates and grown for 3 days, in the absence or presence of regulators, in culture medium. During the last 6 hours of the assay, the culture was pulsed with 0.5μ Ci [methyl-^3H]thymidine/well.

[2] = system: LPS from K. pneumoniae; test: LPS neutralization assay (Limulus amoebocyte lysate, QCL-1000); assay type: biochemical, Klebsiella pneumoniae; conditions: read-out: IC50 values (μM) for LPS binding, Klebsiella
Outline: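 LPS (0.04 units per strain) is mixed with compound and Limulus amoebocyte lysate. Proenzyme activation is then followed by chromogenic substrate cleavage and pNA absorbance at 405-410 nm. Dose-response curves are fit sigmoidally to give IC50.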

[3] = system: B16 melanoma; test: B16 melanoma tumor growth model in mice; assay type: in vivo; conditions: tumor-bearing mice
Description: Female athymic nude mice (nu/nu, 5-6 weeks old) were used. These mice were purchased from the National Cancer Institute and allowed to acclimatize to local conditions for at least one week. Animals were given water and standard chow ad libitum, and were kept on a 12-hour light/dark cycle. All experiments were approved by the University of Minnesota Research Animal Resources ethical committee. Mice were randomized and split into three groups: 1) human serum albumin (10 mg/kg/day), 2) βpep-25 (10 mg/kg/day) and 3) peptide mimetic agent (5 mg or 10 mg/kg/day). Test compounds were diluted in DMSO and administered using osmotic mini-pumps (Durect, Cupertino, Calif.). Exponentially growing MA148 human ovarian carcinoma cells, kindly provided by Prof. Ramakrishnan (R. P. Dings et al., Cancer Res., 63, 382-385 (2003)) or B16 mouse melanoma cells were cultured in RPM1 1640 medium (Life Technologies, Grand Island, N.Y.). […]
Tumor volume was determined by measuring the diameters of tumors using calipers (Scienceware, Pequannock, N.J.) using the equation for the volume of a spheroid: (a^2×b×[…])/6, where ‘a’ is the width and ‘b’ the length or the tumor. […] Tumor weights correlated well with tumor volumes calculated in this way. Statistical differences in tumor growth curves were analyzed using the two-way ANOVA test.

5,11,17,23-Tetra-tert-butyl-25,27-bis(2-guanidinoethoxy)-26,28-dihydroxy calix[4]arene trifluoroacetic acid salt [Compound 27]
antiangiogenic activity (in words) ([1]; trifluoroacetic acid salt): excellent antiangiogenic activity; also recorded: exceptional antiangiogenic activity
IC50 ([2]; Table 3, errors estimated ±30%): > 5 µM
B16 tumor growth (in words) [3]: significantly inhibited

CN(C)CCNC(=O)COc1c2cccc1Cc1cccc(c1OCC(=O)NCCN(C)C)Cc1cccc(c1OCC(=O)NCCN(C)C)Cc1cccc(c1OCC(=O)NCCN(C)C)C2 [Compound 40]
antiangiogenic activity (in words) [1]: exceptional antiangiogenic activity
antiangiogenic activity (in words) ([1]; listed as KM0118 (40)): excellent antiangiogenic activity
IC50 ([2]; Table 2): 1.5 µM
IC50 ([2]; Table 3, errors estimated ±30%): 1.5 µM
B16 tumor growth (in words) [3]: significantly inhibited
